# Results reported in patent publication US8071117B2, “Pheromones” (East Malling Research Limited, priority 2004, dated 2011).
# Entries after “also recorded” stand apart in the source; their conditions may differ.
# How the values were obtained:
# [1] = Rate of release of pheromone components from lures in laboratory wind tunnel; assay type: physicochemical; conditions: for Mean release rate: 27° C., 8 km/hr wind speed; for Mean ratio (release rate to the major component): major component = 100
# Protocol: Measurements were made of the rates of release of the components from lures maintained in a laboratory wind tunnel at 27° C. and 8 km/hr wind speed. Volatiles were collected onto Porapak Q under same conditions for approximately 2 hours and the collections were analysed by Gas Chromatography with a flame ionisation detector using a polar column.
# Release rates (ng/hr) and their ratios to the major component are shown.
# [2] = system: male midge EAG preparation (raspberry cane midge); test: GC-EAG analysis with male midge EAG preparation; parameters: species or system Resseliella theobaldi; conditions: volatiles from female midges, polar GC column
# Protocol: GC-EAG analyses were carried out with a […] GC (Agilent) fitted with capillary GC columns ([…]×0.32 mm i.d.) coated with polar (Wax10; Supelco) and non-polar (SPB 1; Supelco) phases. Injection was splitless (220° C.) and detection was by FID (250°). The oven temperature was programmed from 50° C. for 2 min, then at 10° C./min to 250° C. The GC column effluent was split (1:1) between the FID and a silanised glass T-piece in the column oven. Nitrogen (500 ml/min) was blown continuously over the EAG preparation and every 17 sec this was diverted through the T-piece for 3 sec, blowing the contents over the EAG preparation, as described by Cork et al. (1991).
# Following experience working with other midge species, the EAG preparation was set up by suspending the whole insect between glass electrodes containing electrolyte (0.1 M potassium chloride with 10% polyvinylpyrrolidone added to reduce evaporation). The ends of both antennae were inserted into the recording electrode and the body into the reference electrode. The electrodes were inserted into silver/silver chloride electrodes held in micromanipulators on the portable EAG device developed by Syntech (INR-02; Syntech, Hilversum, The Netherlands).
# Major female-specific component is at 14.24 min; 2-undecanone at 9.07 min, 2-acetoxyundecane at 9.77 min and 2-undecanol at 10.45 min. EAG signals at 13.2 min and 14.9 min are probably interference spikes.
# [3] = system: male raspberry cane midges; test: Field studies: sticky traps baited with rubber septum or polythene vial lures in raspberry plantations; assay type: in vivo, Resseliella theobaldi; conditions: for Mean total number males captured per trap (n): Log10(n + 1) / Mean total number males captured per trap (n): n: 11 May-7 Jun 2005, 10 plantations; for attractiveness to raspberry cane midge males (in words): field tests
# Source text: • A) Sticky traps baited with a rubber septum or polythene vial lure containing 100 microgrammes of racemic 2-acetoxy-5-undecanone were deployed in ten raspberry plantations at Belks farm, Otham, Kent, Beech Farm, West Peckham Kent and East Malling Research between 11 May and 31 May 2005. An average of 153 male raspberry cane midges were caught, per trap, compared to an average of 1 in similar traps not baited with a lure. […] Sticky traps baited with a rubber septa or polythene vial lure containing 100 micrograms of racemic 2-acetoxy-5-undecanone alone or in admixture with 30 micrograms of racemic 2-undecanol, 30 micrograms of undecanone and 30 micrograms of racemic 2-undecyl acetate were deployed in ten raspberry plantations, 4 at Belks farm, Otham, Kent, 4 at Beech Farm, West Peckham Kent and 2 at East Malling Research, Kent between 11 May and 7 Jun. 2005 in a randomised complete block experimental design with the 10 different plantations as blocks.
# The baited traps caught an average of 201 male raspberry cane midges per trap compared to an average of 1 in similar traps not baited with a lure.
# male apple leaf midges = test: Field studies: sticky delta traps baited with synthetic lures in apple orchards; assay type: in vivo, Dasineura mali; conditions: for males caught: 19-27 May 2004; for attractiveness to male apple leaf midges (in words): in vivo; for average male midges caught: 5 replicate traps, 7 May-20 May 2004, East Malling; for average male apple leaf midges caught: 24-27 May 2004
# Source text: A) Sticky delta traps baited with the synthetic lures impregnated with racemic (Z)-13-acetoxy-8-heptadecen-2-one were deployed in apple orchards. Large numbers of male apple leaf midges were caught in traps baited with the compound dispensed into the atmosphere from rubber septa.
Structure (SMILES),"Mean release rate ([1]; Interval 3 days, Septa)","Mean ratio (release rate to the major component) ([1]; Interval 3 days, Septa)","Mean release rate ([1]; Interval 3 days, Vial)","Mean ratio (release rate to the major component) ([1]; Interval 3 days, Vial)","Mean release rate ([1]; Interval 5 days, Vial)","Mean ratio (release rate to the major component) ([1]; Interval 5 days, Vial)","Mean release rate ([1]; Interval 11 days, Septa)","Mean ratio (release rate to the major component) ([1]; Interval 11 days, Septa)","Mean release rate ([1]; Interval 11 days, Vial)","Mean ratio (release rate to the major component) ([1]; Interval 11 days, Vial)","Mean release rate ([1]; Interval 25 days, Vial)","Mean ratio (release rate to the major component) ([1]; Interval 25 days, Vial)","Mean release rate ([1]; Interval 26 days, Septa)","Mean ratio (release rate to the major component) ([1]; Interval 26 days, Septa)",EAG response [2],other results
CCCCCCCCCC(C)=O [2-undecanone],21.6 ng/h,26,41.2 ng/h,111,39.4 ng/h,84,14.3 ng/h,42,39.6 ng/h,48,21.6 ng/h,31,9.9 ng/h,34,–,–
CCCCCCCCCC(C)O (racemic) [2-undecanol],20.2 ng/h,25,19.5 ng/h,52,21.1 ng/h,45,27.4 ng/h,81,29.4 ng/h,36,17.4 ng/h,25,7.4 ng/h,25,probably responses,–
"CCCCCCCCCC(C)OC(C)=O (racemic) [2-undecyl acetate, 2-acetoxyundecane]",30.8 ng/h,38,23.8 ng/h,64,20.6 ng/h,44,14.5 ng/h,43,31.7 ng/h,39,21.8 ng/h,31,8.9 ng/h,30,probably responses,–
"CCCCCCC(=O)CCC(C)OC(C)=O (racemic) [racemic 2-acetoxy-5-undecanone, 2-acetoxy-5-undecanone]",81.8 ng/h,100,37.1 ng/h,100,47.0 ng/h,100,33.8 ng/h,100,81.8 ng/h,100,69.8 ng/h,100,29.5 ng/h,100,–,"average male raspberry cane midges caught per trap ([3]; 100 microgrammes lure, rubber septum or polythene vial, ten plantations, 11 May-31 May 2005): 153; Mean total number males captured per trap (n): Log10(n + 1) ([3]; Dispenser Septa): 1.969; Mean total number males captured per trap (n): n ([3]; Dispenser Septa): 218; Mean total number males captured per trap (n): Log10(n + 1) ([3]; Dispenser Vial): 2.042; Mean total number males captured per trap (n): n ([3]; Dispenser Vial): 230; attractiveness to raspberry cane midge males (in words) [3]: highly attractive; also recorded: attracted a significant number; attractiveness to raspberry cane midge males (in words) ([3]; listed as 2-acetoxy-5-undecanone): work exceptionally well"
"CCCCC(CCC/C=C\CCCCCC(C)=O)OC(C)=O (racemic) [racemic (Z)-13-acetoxy-8-heptadecen-2-one, (Z)-13-acetoxy-8-heptadecen-2-one]",–,–,–,–,–,–,–,–,–,–,–,–,–,–,–,"distance at which lures attract significant numbers of males (male apple leaf midges; 100 micrograms lure): at least 50 m; males caught (male apple leaf midges; 100 micrograms lure, 10 m from isolated infested orchard): 563; males caught (male apple leaf midges; 100 micrograms lure, 20 m from isolated infested orchard): 348; males caught (male apple leaf midges; 100 micrograms lure, 30 m from isolated infested orchard): 148; males caught (male apple leaf midges; 100 micrograms lure, 40 m from isolated infested orchard): 266; males caught (male apple leaf midges; 100 micrograms lure, 50 m from isolated infested orchard): 103; attractiveness to male apple leaf midges (in words) (male apple leaf midges): Large numbers; attractiveness to male apple leaf midges (in words) (male apple leaf midges; listed as 13-acetoxy-8-heptadecen-2-one): strongly attractive effect; attractiveness to male apple leaf midges (in words) (male apple leaf midges; listed as (Z)-13-acetoxy-8-heptadecen-2-one): racemic mixtures work exceptionally well; apple leaf midges attracted to a trap (male apple leaf midges; one test, in one day, released at approximately 1 ng/hr): 1,600; average male midges caught (male apple leaf midges; rubber septa 10 micrograms): 1201; average male midges caught (male apple leaf midges; rubber septa 100 micrograms): 4037; average male apple leaf midges caught (male apple leaf midges; rubber septum lure 1 microgram): 12; average male apple leaf midges caught (male apple leaf midges; rubber septum lure 3 microgram): 97; average male apple leaf midges caught (male apple leaf midges; rubber septum lure 10 microgram): 273"
"CCCCCCC(=O)CCC(C)OC(C)=O (single isomer, unassigned) [major female-specific component, 2-acetoxy-5-undecanone]",–,–,–,–,–,–,–,–,–,–,–,–,–,–,EAG response was always observed,–
